From US4931436A, “Condensed diazepinones, processes for preparing them and pharmaceutical compositions containing these compounds” (Dr. Karl Thomae GmbH, priority 1988, dated 1990)
Counter-ions that a name gives are not always drawn. Like-named read-outs stand apart in the source and are kept apart here. One block for each molecule: values may come before it.

Assays:
[1] = target: muscarinic receptors (submandibular gland) (Rattus norvegicus, UniProt P08483); test: biochemical; type: binding, rat (male Sprague-Dawley); conditions: in vitro, 0.3 nmolar 3H-NMS, 45 min, 30° C., read-out: log IC50, Submandibular gland (converted)
[2] = target: T1, muscarinic receptors (heart) (Rattus norvegicus, UniProt P10980); test: Receptor binding test in vitro, 3H-NMS displacement, whole heart; design: species or system rat (male Sprague-Dawley)
T1 construct: The whole heart was cut up with scissors; from tissue; host or cells: whole heart of male Sprague-Dawley rats, homogenate
T1 sequence (P10980 1-466): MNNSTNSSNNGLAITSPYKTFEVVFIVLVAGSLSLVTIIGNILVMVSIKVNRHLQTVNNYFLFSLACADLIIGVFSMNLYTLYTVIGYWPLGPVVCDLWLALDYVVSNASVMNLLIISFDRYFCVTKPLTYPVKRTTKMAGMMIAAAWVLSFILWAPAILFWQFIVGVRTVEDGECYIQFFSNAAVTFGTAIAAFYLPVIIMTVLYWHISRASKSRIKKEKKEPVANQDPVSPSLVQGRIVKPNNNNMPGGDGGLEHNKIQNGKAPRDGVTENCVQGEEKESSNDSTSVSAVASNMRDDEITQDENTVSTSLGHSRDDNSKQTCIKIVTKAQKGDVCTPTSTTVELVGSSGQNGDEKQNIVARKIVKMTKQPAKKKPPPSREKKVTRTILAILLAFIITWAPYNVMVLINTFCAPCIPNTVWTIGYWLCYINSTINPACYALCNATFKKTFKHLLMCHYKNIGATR
Procedure: The organs were donated by male Sprague-Dawley rats weighing 180-220 g. After the heart and submandibular gland had been removed, all other steps were carried out in ice cold Hepes HCl buffer (pH 7.4; 100 mmolar NaCl, 10 mmolar MgCl2). The whole heart was cut up with scissors. All the organs were then homogenised in a Potter apparatus.
For the binding test the homogenised organs were diluted as follows:
The homogenised organs were incubated at a certain concentration of the radioligand and at a series of concentrations of the non-radioactive test substances in an Eppendorf centrifuge tube at 30° C. Incubation lasted 45 minutes. […] Incubation was ended by the addition of ice cold buffer followed by vacuum filtration. The filters were rinsed with cold buffer and their radioactivity was determined. […] Each measurement was taken four times. The IC50 values of the non-labelled test substances were determined graphically.

[3] = test system: muscarinic receptors of the atrium; test: Dissociation constants (KB values) on the isolated spontaneously beating right atrium; design: species or system guinea pig; conditions: guinea pig heart and ileum in vitro
Procedure: (§1) Dissociation constants (KB values) were determined "in vitro" on the ileum and spontaneously beating atrium of the guinea pig. The ileum was taken out and incubated in Krebs-Henseleit solution in an organ bath. Contractions were induced by increasing concentrations of methacholine (M) so that total concentration/activity curves could be recorded. M was then washed out, the test substance was added and kept in contact for 30 minutes and another concentration/activity curve was recorded with M.
(§2) Dissociation constants for the muscarinic receptors of the atrium were obtained in the manner described above.

[4] = target: T2, muscarinic receptors of the atrium (Cavia porcellus, UniProt H0VRN8); test: as above; design: species or system guinea pig; conditions: spontaneously beating atrium, guinea pig, methacholine, 30 minutes contact; read-out: KB, Heart
T2 construct: isolated, spontaneously beating, right atrium; from tissue; host or cells: isolated spontaneously beating right atrium of the guinea pig
T2 sequence (H0VRN8 1-466): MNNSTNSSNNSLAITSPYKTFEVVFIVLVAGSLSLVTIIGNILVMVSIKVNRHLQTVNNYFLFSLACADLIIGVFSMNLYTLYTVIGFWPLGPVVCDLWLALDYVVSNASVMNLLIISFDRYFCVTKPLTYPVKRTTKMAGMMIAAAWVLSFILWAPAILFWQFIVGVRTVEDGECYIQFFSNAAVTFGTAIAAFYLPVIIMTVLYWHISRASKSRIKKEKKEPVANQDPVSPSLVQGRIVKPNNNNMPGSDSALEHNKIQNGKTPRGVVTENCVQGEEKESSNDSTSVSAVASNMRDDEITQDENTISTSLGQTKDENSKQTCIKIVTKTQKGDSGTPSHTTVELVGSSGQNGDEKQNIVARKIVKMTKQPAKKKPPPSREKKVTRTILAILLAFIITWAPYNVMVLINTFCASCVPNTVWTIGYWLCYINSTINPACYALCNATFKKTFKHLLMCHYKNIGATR
Procedure: as §1, §2

[5] = target: T3, muscarinic receptors (heart, atrium) (Rattus norvegicus, UniProt P10980); test: Receptor binding test in vivo (3H-NMS), atrium; design: species or system rat (female)
T3 construct: from tissue; host or cells: heart (atrium, ventricle) of female rats, labelled in vivo
T3 sequence (P10980 1-466): T1 sequence (P10980 1-466)
Procedure: (§3) For these experiments, female rats with a body weight of about 200 g were used. Before the start of the experiment the animals were anaesthetised with a dose of 1.25 g/kg of urethane. The animals were given the dosage of test substance by i.v. injection. After 15 minutes, 113 ng/kg of ^3 H-N-methylscopolamine (^3 H-NMS) were given by the same route. After another 15 minutes the animals were killed and their heart, bronchi and lachrymal glands were taken out. These organs were dissolved in Soluene R and the radioactivity was measured. These measurements were taken as representing total binding. […] The ID50 values for the individual organs were determined from these experiments. […]

[6] = target: T4, muscarinic receptors (ileum) (Cavia porcellus, UniProt H0W1Z3); test: Dissociation constants (KB values) on the isolated ileum; conditions: guinea pig, methacholine, 30 minutes contact
T4 construct: from tissue; host or cells: isolated ileum of the guinea pig
Procedure: as §1

[7] = target: T5, muscarinic receptors (heart, ventricle) (Rattus norvegicus, UniProt P10980); test: Receptor binding test in vivo (3H-NMS), ventricle; design: species or system rat (female); conditions: iv, 0.5 h, read-out: ID50, Heart, Ventricle
T5 construct: from tissue; host or cells: heart (atrium, ventricle) of female rats, labelled in vivo
T5 sequence (P10980 1-466): T1 sequence (P10980 1-466)
Procedure: as §3

[8] = target: T6, M1 (Rattus norvegicus, UniProt P08482); test: M1 activity in the rat: inhibition of rise in blood pressure caused by McN-A-343; type: in vivo, rat (male THOM); conditions: iv, 5 min, read-out: M1 activity (rat) ED50
T6 construct: from tissue; host or cells: living male THOM rat (site of action, sympathetic ganglia, is own knowledge)
T6 sequence (P08482 1-460): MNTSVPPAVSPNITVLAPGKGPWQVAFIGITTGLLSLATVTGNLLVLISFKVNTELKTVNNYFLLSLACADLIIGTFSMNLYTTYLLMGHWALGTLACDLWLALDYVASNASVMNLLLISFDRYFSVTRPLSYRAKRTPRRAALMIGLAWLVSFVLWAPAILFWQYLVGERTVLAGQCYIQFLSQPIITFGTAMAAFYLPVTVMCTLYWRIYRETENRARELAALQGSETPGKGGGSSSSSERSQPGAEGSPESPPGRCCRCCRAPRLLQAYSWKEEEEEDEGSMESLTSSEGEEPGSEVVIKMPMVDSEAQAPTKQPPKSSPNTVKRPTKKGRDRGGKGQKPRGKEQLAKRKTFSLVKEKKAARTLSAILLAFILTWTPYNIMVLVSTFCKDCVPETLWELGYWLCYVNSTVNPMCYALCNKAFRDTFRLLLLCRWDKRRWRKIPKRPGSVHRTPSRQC
Procedure: The dosage of the substances which reduced either the vagal bradycardia (M2) or the rise in blood pressure (M1) by 50% was determined graphically. For the results see Table II.

[9] = target: T7, M2 (Rattus norvegicus, UniProt P10980); test: M2 activity in the rat: inhibition of bradycardia caused by vagus stimulation; type: in vivo, rat (male THOM); conditions: iv, 5 min, 50% reduction of vagal bradycardia
T7 construct: The bradycardia caused by vagus stimulation; from tissue; host or cells: heart of the living male THOM rat
T7 sequence (P10980 1-466): T1 sequence (P10980 1-466)
Procedure: The method used was described by Hammer and Giachetti (Life Sciences 31, 2991-2998 (1982)). 5 minutes after the intravenous injection of increasing doses of the substance, either the right vagus was electrically stimulated (frequency: 25 Hz; pulse width: 2 ms; duration of stimulus: 30 s; voltage: supramaximal) or 0.3 mg/kg of McN-A-343 were intravenously injected into male THOM rats. The bradycardia caused by vagus stimulation and the rise in blood pressure caused by McN-A-343 were determined. The dosage of the substances which reduced either the vagal bradycardia (M2) or the rise in blood pressure (M1) by 50% was determined graphically. For the results see Table II.

[10] = test system: muscarinic receptors (bronchi); test: Receptor binding test in vivo (3H-NMS), bronchi; design: species or system rat (female); conditions: i.v., in vivo 3H-NMS binding, rat; 30 min
Procedure: as §3

[11] = target: muscarinic receptors (lachrymal glands) (Rattus norvegicus, UniProt P08483); test: in vivo; conditions: for ED50: iv, 0.5 h, read-out: ID50, Lachrymal glands
Procedure: as §3

[12] = Solubility in water; type: physicochemical
[13] = test system: bladder; test: Inhibition of acetylcholine activity on the bladder (contraction of the exposed bladder); type: in vivo, guinea pig; conditions: Cavia porcellus, 5 min, read-out: log ED50, Bladder
Procedure: (§4) 5 minutes after the administration of the test substance, 10 mcg/kg of acetylcholine were simultaneously injected intravenously and intra-arterially into anaesthetised guinea pigs. The heart rate was recorded directly by extracorporeal derivation of the ECG, the expiration resistance according to Konzett-Rossler and contraction of the exposed bladder. In order to determine the inhibition of the acetylcholine activity on the organs under investigation, dosage/activity curves were recorded and from them -log ED50 values were determined.

[14] = test system: heart rate; test: Inhibition of acetylcholine activity on heart rate; type: in vivo, guinea pig; conditions: Cavia porcellus, 5 min, read-out: log ED50, Heart
Procedure: as §4

[15] = i.v., 50% reduction of McN-A-343 rise in blood pressure

Chain of muscarinic receptors (lachrymal glands) (P08483 whole entry): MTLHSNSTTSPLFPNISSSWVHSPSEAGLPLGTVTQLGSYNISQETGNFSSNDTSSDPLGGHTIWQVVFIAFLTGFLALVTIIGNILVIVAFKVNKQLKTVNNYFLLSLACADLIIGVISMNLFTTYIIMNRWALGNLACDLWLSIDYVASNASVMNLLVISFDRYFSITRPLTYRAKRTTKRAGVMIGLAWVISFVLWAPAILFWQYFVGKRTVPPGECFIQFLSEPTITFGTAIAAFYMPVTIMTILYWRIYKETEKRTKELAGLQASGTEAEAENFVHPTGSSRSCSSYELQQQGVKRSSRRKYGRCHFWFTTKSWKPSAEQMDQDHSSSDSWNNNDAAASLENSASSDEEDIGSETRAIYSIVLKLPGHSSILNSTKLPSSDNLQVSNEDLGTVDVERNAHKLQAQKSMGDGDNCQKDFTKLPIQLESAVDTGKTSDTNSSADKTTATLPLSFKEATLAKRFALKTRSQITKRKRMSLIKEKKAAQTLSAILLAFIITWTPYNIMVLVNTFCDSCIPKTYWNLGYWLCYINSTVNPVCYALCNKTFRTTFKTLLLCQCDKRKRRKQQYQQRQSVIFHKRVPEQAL
Chain of muscarinic receptors (submandibular gland) (P08483 whole entry): as above
T4 sequence (H0W1Z3 1-590): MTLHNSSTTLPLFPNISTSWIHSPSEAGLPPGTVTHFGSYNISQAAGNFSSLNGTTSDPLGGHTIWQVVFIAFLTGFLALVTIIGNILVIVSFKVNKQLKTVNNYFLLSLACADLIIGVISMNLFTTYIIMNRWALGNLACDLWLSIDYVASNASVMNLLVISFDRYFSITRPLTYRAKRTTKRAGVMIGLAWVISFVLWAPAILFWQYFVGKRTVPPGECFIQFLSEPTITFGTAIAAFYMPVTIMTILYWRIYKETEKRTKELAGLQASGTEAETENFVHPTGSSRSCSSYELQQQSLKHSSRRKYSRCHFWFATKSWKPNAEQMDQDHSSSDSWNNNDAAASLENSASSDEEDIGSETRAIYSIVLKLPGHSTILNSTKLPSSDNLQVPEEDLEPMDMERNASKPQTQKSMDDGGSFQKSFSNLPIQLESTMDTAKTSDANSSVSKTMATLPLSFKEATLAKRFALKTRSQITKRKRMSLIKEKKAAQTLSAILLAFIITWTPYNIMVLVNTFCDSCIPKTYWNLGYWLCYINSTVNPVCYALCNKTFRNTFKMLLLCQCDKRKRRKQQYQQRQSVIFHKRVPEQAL

SMILES: CCN(CC)CC1CCCCN1CC(=O)N1c2ccccc2C(=O)Nc2cccnc21 (stereo not drawn) [Substance X, 11-[[2-[(diethylamino)methyl]-1-piperidinyl]acetyl]-5,11-dihydro-6H-pyrido[2,3-b][1,4]benzodiazepin-6-one]
ED50 [11]: > 30 mg/kg

SMILES: Cl.O=C1Nc2cccnc2N(C(=O)N2CCCC(CCCN3CCCC3)C2)c2ccccc21 (stereo not drawn) [Substance B, 5,11-dihydro-11-[[3-[3-(1-pyrrolidinyl)propyl]-1-piperidinyl]carbonyl]-6H-pyrido[2,3-b][1,4]benzodiazepin-6-one-hydrochloride]
IC50 [1]: 39.8 nM | Selectivity factor: ratio IC50 submandibular gland to IC50 heart [2]: 4

SMILES: O=C1Nc2cccnc2N(C(=O)N2CCCC(CCN3CCCC3)C2)c2ccccc21 (stereo not drawn) [Substance D, 5,11-dihydro-11-[[3-[2-(1-pyrrolidinyl)ethyl]-1-piperidinyl]carbonyl]-6H-pvrido[2,3-b][1,4]benzodiazepin-6-one-hydrochloride]
IC50 [1]: 50.1 nM | Selectivity factor: ratio IC50 submandibular gland to IC50 heart [2]: 8.3

SMILES: CN1[C@@H]2CC[C@H]1C[C@@H](OC(=O)C(CO)c1ccccc1)C2 (stereo partly drawn) [Substance Z, atropine, reference compound]
ED50 [13]: 0.0933 µmol/kg | Kb [4]: 1.41 nM | ED50 ([5]; iv, 0.5 h, read-out: ID50, Heart, Atrium): 0.08 mg/kg | ED50 [7]: 0.03 mg/kg | ED50 [14]: 0.02 µmol/kg | ED50 [8]: 0.016 mg/kg | ID50, Bronchi [10]: 0.1 mg/kg | ED50 [11]: 0.2 mg/kg

SMILES: Cl.O=C1Nc2cccnc2N(C(=O)N2CCCC(CCN3CCCCCC3)C2)c2ccccc21 (stereo not drawn) [Substance F, 5,11-dihydro-11-[[3-[2-(hexahydro-1H-1-azepinyl)ethyl]-1-piperidinyl]carbonyl]-6H-pyrido[2,3-b][1,4]-benzodiazepin-6-one-hydrochloride]
IC50 [1]: 30.2 nM | Selectivity factor: ratio IC50 submandibular gland to IC50 heart [2]: 10

Continued, in another order:

IC50 [1]: 30.2 nM | Selectivity factor: ratio IC50 submandibular gland to IC50 heart [2]: 10
SMILES: CN(CCC1CCCN(C(=O)N2c3ccccc3C(=O)Nc3cccnc32)C1)C1CCCC1 (stereo not drawn) [Substance E]

Kb [4]: 0.347 nM | Kb [6]: 3.23 nM | ED50 ([7]; i.v., in vivo 3H-NMS binding): 0.005 mg/kg | ED50 [9]: 0.0069 mg/kg | IC50 [1]: 20 nM | Selectivity factor: ratio IC50 submandibular gland to IC50 heart [2]: 10 | Ratio of ID50 in the lachrymal glands to ID50 in the atrium ([11]; in vivo binding): 20
SMILES: O=C1Nc2cccnc2N(C(=O)N2CCCC(CCCN3CCCCC3)C2)c2ccccc21 (stereo not drawn) [Substance A, 5,11-dihydro-11-[[3-[3-(1-piperidinyl)propyl]-1-piperidinyl]carbonyl]-6H-pyrido[2,3-b][1,4]-benzodiazepin-6-one]
effectiveness compared with X and Y, Table III (in words) [3]: significantly more effective than X and Y | selectivity heart vs smooth muscle, Table III (in words) [3]: a clear selectivity in favour of the heart | potency on the heart compared with X and Y, Table IV (in words) ([5]; in vivo binding): significant improvement in potency compared with substances X and Y on the heart | ED50 [8, 15]: 0.049 mg/kg | ID50, Bronchi [10]: 0.06 mg/kg

ED50 [9]: 0.00813 mg/kg | IC50 [1]: 39.8 nM | Selectivity factor: ratio IC50 submandibular gland to IC50 heart [2]: 10
SMILES: O=C1Nc2ccccc2N(C(=O)N2CCCC(CCN3CCCCC3)C2)c2ncccc21 (stereo not drawn) [Substance G, 6,11-dihydro-11-[[3-[2-(1-piperidinyl)ethyl]-1-piperidinyl]carbonyl]-5H-pyrido[2,3-b][1,5]benzodiazepin-5-one]
ED50 [8, 15]: 0.00716 mg/kg

ED50 [9]: 0.0076 mg/kg | IC50 [1]: 30.2 nM | Selectivity factor: ratio IC50 submandibular gland to IC50 heart [2]: 10
SMILES: CS(=O)(=O)O.O=C1Nc2cccnc2N(C(=O)N2CCCC(CCN3CCCCC3)C2)c2ccccc21 (stereo not drawn) [Substance C, 5,11-dihydro-11-[[3-[2-(1-piperidinyl)ethyl]-1-piperidinyl]carbonyl]-6H-pyrido[2,3-b][1,4]benzodiazepin-6-one-methanesulphonate]
ED50 [8, 15]: 0.039 mg/kg

solubility in water (in words) [12]: readily soluble in water
SMILES: CS(=O)(=O)O.O=C1Nc2cccnc2N(C(=O)N2CCCC(CCCN3CCCCC3)C2)c2ccccc21 (stereo not drawn) [Example 1 methanesulphonate, 5,11-dihydro-11-[[3-[3-(1-piperidinyl)propyl]-1-piperidinyl]carbonyl]-6H-pyrido[2,3-b][1,4]benzodiazepin-6-one-methanesulphonate]

solubility in water (in words) [12]: water soluble
SMILES: CCN(CC)CCCCC1CCCCN1C(=O)N1c2ccccc2C(=O)Nc2cccnc21 (stereo not drawn) [Example 4 dihydrochloride]
